{"source": "PubChem BioAssay AID330", "about": "(DTP/NCI, 2004)", "tested_on": "P388 leukemia ip, CD2F1 mice, survival T/C", "assay": "NCI In Vivo Anticancer Drug Screen. Data for tumor model P388 Leukemia (intraperitoneal) in CD2F1 (CDF1) mice", "conditions": "endpoint: median survival time, higher = longer survival", "procedure,_shortened": "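Mice carrying the transplanted tumor received test compound or vehicle. Survival was recorded in each group, and the value is the treated-group measurement divided by that of the vehicle-treated control group.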", "key": {"[1]": {"conditions": "dose: 50.0 mg/kg/injection, schedule: Q01DX005 (ip), vehicle: Klucel (hydroxypropylcellulose) (HPC)"}, "[2]": {"conditions": "dose: 100.0 mg/kg/injection, schedule: Q01DX005 (ip), vehicle: Klucel (hydroxypropylcellulose) (HPC)"}, "[3]": {"conditions": "dose: 200.0 mg/kg/injection, schedule: Q01DX005 (ip), vehicle: Klucel (hydroxypropylcellulose) (HPC)"}, "[4]": {"conditions": "dose: 50.0 mg/kg/injection, schedule: Q01DX005 (ip), vehicle: saline with Tween-80"}, "[5]": {"conditions": "dose: 100.0 mg/kg/injection, schedule: Q01DX005 (ip), vehicle: saline with Tween-80"}, "[6]": {"conditions": "dose: 200.0 mg/kg/injection, schedule: Q01DX005 (ip), vehicle: saline with Tween-80"}, "[7]": {"conditions": "dose: 60.0 mg/kg/injection, schedule: Q01DX005 (ip), vehicle: saline with Tween-80"}, "[8]": {"conditions": "dose: 120.0 mg/kg/injection, schedule: Q01DX005 (ip), vehicle: saline with Tween-80"}}, "note": "Inconclusive results and toxic doses are left out.", "data": [{"molecule": "O=C1CSC=C(c2ccccc2)O1", "values": [{"measurement": "T/C", "setting": "dose: 12.5 mg/kg/injection, schedule: Q01DX009 (ip), vehicle: saline with Tween-80", "result": "108 % of control"}, {"measurement": "T/C", "setting": "dose: 25.0 mg/kg/injection, schedule: Q01DX009 (ip), vehicle: saline with Tween-80", "result": "110 % of control"}, {"measurement": "T/C", "setting": "dose: 50.0 mg/kg/injection, schedule: Q01DX009 (ip), vehicle: saline with Tween-80", "result": "109 % of control"}, {"measurement": "T/C", "setting": "dose: 100.0 mg/kg/injection, schedule: Q01DX009 (ip), vehicle: saline with Tween-80", "result": "104 % of control"}]}, {"molecule": "Nc1c(C(=O)Nc2ccc3c(c2)C(=O)c2ccccc2C3=O)ccc2c1C(=O)c1ccccc1C2=O", "values": [{"measurement": "T/C", "setting": "[1]", "result": "107 % of control"}, {"measurement": "T/C", "setting": "[2]", "result": "90 % of control"}, {"measurement": "T/C", "setting": "[3]", "result": "100 % of control"}]}, {"molecule": "COc1cccc2c1C(=O)c1c(O)c3c(c(O)c1C2=O)C[C@@](O)(c1csc(-c2ccccc2)n1)C[C@@H]3OC1CC(N)C(O)C(C)O1", "note": "(some centres not stated)", "values": [{"measurement": "T/C", "setting": "dose: 1.56 mg/kg/injection, schedule: Q01DX009 (ip), vehicle: water", "result": "174 % of control"}, {"measurement": "T/C", "setting": "dose: 3.13 mg/kg/injection, schedule: Q01DX009 (ip), vehicle: water", "result": "165 % of control"}, {"measurement": "T/C", "setting": "dose: 6.25 mg/kg/injection, schedule: Q01DX009 (ip), vehicle: water", "result": "182 % of control"}]}, {"molecule": "N#CNC(c1ccccc1)(c1ccccc1)c1ccccc1", "values": [{"measurement": "T/C", "setting": "[4]", "result": "98 % of control"}, {"measurement": "T/C", "setting": "[5]", "result": "98 % of control"}, {"measurement": "T/C", "setting": "[6]", "result": "94 % of control"}]}, {"molecule": "CCCCNC(=O)C(C)O", "note": "(configuration not stated)", "values": [{"measurement": "T/C", "setting": "dose: 50.0 mg/kg/injection, schedule: Q01DX005 (ip), vehicle: saline", "result": "101 % of control"}, {"measurement": "T/C", "setting": "dose: 100.0 mg/kg/injection, schedule: Q01DX005 (ip), vehicle: saline", "result": "99 % of control"}, {"measurement": "T/C", "setting": "dose: 200.0 mg/kg/injection, schedule: Q01DX005 (ip), vehicle: saline", "result": "92 % of control"}]}, {"molecule": "CCCOC1(C)Oc2cc3c(cc2C(c2cc(OC)c(OC)c(OC)c2)C1C)OCO3", "note": "(configuration not stated)", "values": [{"measurement": "T/C", "setting": "dose: 60.0 mg/kg/injection, schedule: Q01DX005 (ip), vehicle: Klucel (hydroxypropylcellulose) (HPC)", "result": "97 % of control"}, {"measurement": "T/C", "setting": "dose: 120.0 mg/kg/injection, schedule: Q01DX005 (ip), vehicle: Klucel (hydroxypropylcellulose) (HPC)", "result": "96 % of control"}, {"measurement": "T/C", "setting": "dose: 240.0 mg/kg/injection, schedule: Q01DX005 (ip), vehicle: Klucel (hydroxypropylcellulose) (HPC)", "result": "99 % of control"}]}, {"molecule": "CC1CCC2(CC1)CCN(CCCN(C)C)CC2", "values": [{"measurement": "T/C", "setting": "dose: 50.0 mg/kg/injection, schedule: Q01DX009 (ip), vehicle: saline", "result": "99 % of control"}, {"measurement": "T/C", "setting": "dose: 100.0 mg/kg/injection, schedule: Q01DX009 (ip), vehicle: saline", "result": "103 % of control"}]}, {"molecule": "COc1ccc(C(=O)CC(C(=O)O)c2ccc(OC)c(OC)c2)cc1OC", "note": "(configuration not stated)", "values": [{"measurement": "T/C", "setting": "dose: 100.0 mg/kg/injection, schedule: Q04DX003 (ip), vehicle: saline with Tween-80", "result": "90 % of control"}, {"measurement": "T/C", "setting": "dose: 200.0 mg/kg/injection, schedule: Q04DX003 (ip), vehicle: saline with Tween-80", "result": "86 % of control"}, {"measurement": "T/C", "setting": "dose: 400.0 mg/kg/injection, schedule: Q04DX003 (ip), vehicle: saline with Tween-80", "result": "86 % of control"}]}, {"molecule": "O=C(Nc1ccc(S(=O)(=O)Nc2nccs2)cc1)c1cccnc1Nc1cccc(Cl)c1", "values": [{"measurement": "T/C", "setting": "[7]", "result": "111 % of control"}, {"measurement": "T/C", "setting": "[8]", "result": "113 % of control"}, {"measurement": "T/C", "setting": "dose: 240.0 mg/kg/injection, schedule: Q01DX005 (ip), vehicle: saline with Tween-80", "result": "106 % of control"}]}, {"molecule": "COC1(c2ccccc2)C2CCCCC2C2CCCCC21", "note": "(configuration not stated)", "values": [{"measurement": "T/C", "setting": "[4]", "result": "100 % of control"}, {"measurement": "T/C", "setting": "[5]", "result": "98 % of control"}, {"measurement": "T/C", "setting": "[6]", "result": "100 % of control"}]}, {"molecule": "C=CC1(C)CCOC(=O)C1", "note": "(configuration not stated)", "values": [{"measurement": "T/C", "setting": "[7]", "result": "94 % of control"}, {"measurement": "T/C", "setting": "[8]", "result": "97 % of control"}]}, {"molecule": "COc1ccccc1C(Nc1ccc([N+](=O)[O-])cc1)P(=O)(Oc1ccccc1)Oc1ccccc1", "note": "(configuration not stated)", "values": [{"measurement": "T/C", "setting": "[1]", "result": "95 % of control"}, {"measurement": "T/C", "setting": "[2]", "result": "106 % of control"}, {"measurement": "T/C", "setting": "[3]", "result": "95 % of control"}]}, {"molecule": "CCOC(=O)c1c(Cl)c(-c2ccccc2)c(=O)n2c1[nH]c1ccccc12", "values": [{"measurement": "T/C", "setting": "dose: 100.0 mg/kg/injection, schedule: Q01DX001 (ip), vehicle: saline with Tween-80", "result": "100 % of control"}, {"measurement": "T/C", "setting": "dose: 200.0 mg/kg/injection, schedule: Q01DX001 (ip), vehicle: saline with Tween-80", "result": "101 % of control"}, {"measurement": "T/C", "setting": "dose: 400.0 mg/kg/injection, schedule: Q01DX001 (ip), vehicle: saline with Tween-80", "result": "102 % of control"}]}, {"molecule": "CC(=O)NC1=C(O)C2C(c3ccccc3)C(C#N)C(=O)N2C1=O", "note": "(configuration not stated)", "values": [{"measurement": "T/C", "setting": "dose: 100.0 mg/kg/injection, schedule: Q04DX002 (ip), vehicle: saline with Tween-80", "result": "100 % of control"}, {"measurement": "T/C", "setting": "dose: 200.0 mg/kg/injection, schedule: Q04DX002 (ip), vehicle: saline with Tween-80", "result": "100 % of control"}, {"measurement": "T/C", "setting": "dose: 400.0 mg/kg/injection, schedule: Q04DX002 (ip), vehicle: saline with Tween-80", "result": "95 % of control"}]}, {"molecule": "C=CCc1ccc(C(=O)OCCCCCCCCCC)c(OC)c1", "values": [{"measurement": "T/C", "setting": "dose: 50.0 mg/kg/injection, schedule: Q01DX009 (ip), vehicle: Klucel (hydroxypropylcellulose) (HPC)", "result": "103 % of control"}, {"measurement": "T/C", "setting": "dose: 100.0 mg/kg/injection, schedule: Q01DX009 (ip), vehicle: Klucel (hydroxypropylcellulose) (HPC)", "result": "105 % of control"}, {"measurement": "T/C", "setting": "dose: 200.0 mg/kg/injection, schedule: Q01DX009 (ip), vehicle: Klucel (hydroxypropylcellulose) (HPC)", "result": "105 % of control"}]}, {"molecule": "O=C1CCC(N2CCCCC2)CCC1(c1ccccc1)c1ccccc1", "note": "(configuration not stated)", "values": [{"measurement": "T/C", "setting": "[4]", "result": "106 % of control"}, {"measurement": "T/C", "setting": "[5]", "result": "103 % of control"}, {"measurement": "T/C", "setting": "[6]", "result": "96 % of control"}]}]}
